Measurements reported in the supplement of paper PMC5908809.

Key:
[1] = test system: normal NK cells expanded with K562-aAPC; experiment: percent inhibition of viability; higher = more inhibition; conditions: 72 h, IL-2 2.5 ng/mL
Protocol: (§1)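 Drug sensitivity and resistance testing on K562-aAPC-expanded normal NK cells: 5 concentrations (10-fold steps over a 10,000-fold range), 72 h at 37 °C, viability by CellTiter-Glo normalised to DMSO and benzethonium chloride controls; DSS from the fitted curve.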

[2] = test system: DERL-7 (IL-2 2.5 ng/mL); experiment: as above; conditions: 72 h
[3] = test system: IMC-1 (IL-2 20 ng/mL); experiment: as above; conditions: 72 h
[4] = test system: KAI3 (IL-2 2.5 ng/mL); experiment: as above; conditions: 72 h
[5] = test system: KHYG-1 (IL-2 2.5 ng/mL); experiment: as above; conditions: 72 h
[6] = test system: NK-92 (IL-2 2.5 ng/mL); experiment: as above; conditions: 72 h
[7] = test system: NK-YS (IL-2 2.5 ng/mL); experiment: as above; conditions: 72 h
[8] = test system: NKL (IL-2 2.5 ng/mL); experiment: as above; conditions: 72 h
[9] = test system: SNK-6 (IL-2 2.5 ng/mL); experiment: as above; conditions: 72 h
[10] = test system: YT (IL-2 2.5 ng/mL); experiment: as above; conditions: 72 h
[11] = test system: normal primary NK cells, pool 1 (3 donors) (IL-2 2.5 ng/mL); experiment: as above; conditions: 72 h
[12] = test system: normal primary NK cells, pool 1 (3 donors), resting (IL-2 0 ng/mL); experiment: as above; conditions: 72 h
[13] = test system: normal primary NK cells, pool 2 (3 donors) (IL-2 2.5 ng/mL); experiment: as above; conditions: 72 h
[14] = test system: normal primary NK cells, pool 3 (3 donors) (IL-2 2.5 ng/mL); experiment: as above; conditions: 72 h
[15] = test system: normal NK cells expanded with K562-aAPC; experiment: drug sensitivity score (DSS) (DSS units); higher = more sensitive; extreme values may be limits of the assay; conditions: 72 h; IL-2 2.5 ng/mL
Protocol: as §1

[16] = test system: DERL-7 (IL-2 2.5 ng/mL); experiment: as above; conditions: 72 h
[17] = test system: IMC-1 (IL-2 20 ng/mL); experiment: as above; conditions: 72 h
[18] = test system: KAI3 (IL-2 2.5 ng/mL); experiment: as above; conditions: 72 h
[19] = test system: KHYG-1 (IL-2 2.5 ng/mL); experiment: as above; conditions: 72 h
[20] = test system: NK-92 (IL-2 2.5 ng/mL); experiment: as above; conditions: 72 h
[21] = test system: NK-YS (IL-2 2.5 ng/mL); experiment: as above; conditions: 72 h
[22] = test system: NKL (IL-2 2.5 ng/mL); experiment: as above; conditions: 72 h
[23] = test system: SNK-6 (IL-2 2.5 ng/mL); experiment: as above; conditions: 72 h
[24] = test system: YT (IL-2 2.5 ng/mL); experiment: as above; conditions: 72 h
[25] = test system: normal primary NK cells, pool 1 (3 donors) (IL-2 2.5 ng/mL); experiment: as above; conditions: 72 h
[26] = test system: normal primary NK cells, pool 1 (3 donors), resting (IL-2 0 ng/mL); experiment: as above; conditions: 72 h
[27] = test system: normal primary NK cells, pool 2 (3 donors) (IL-2 2.5 ng/mL); experiment: as above; conditions: 72 h
[28] = test system: normal primary NK cells, pool 3 (3 donors) (IL-2 2.5 ng/mL); experiment: as above; conditions: 72 h

Cc1cnc(NC(=O)Nc2cc(Br)c(C)cc2OC[C@@H]2CNCCO2)cn1 [Rabusertib] (max concentration tested 1000 nM)
percent inhibition of viability [%]
Conditions	0.1 nM	1 nM	10 nM	100 nM	1000 nM
[1]	4.2	-1.61	0.16	13.5	55.7
[2]	5.67	5.69	4.81	4.56	33.5
[3]	-3.74	-1.84	2.04	1.67	9.87
[4]	-0.28	-3.83	3.9	11.6	81
[5]	3.66	7.68	5.93	14.9	103
[6]	-4.77	4.85	16	18.2	86.9
[7]	1.16	1.34	0.68	3.22	65.2
[8]	-16.6	0.3	-1.09	14	86.2
[9]	11.6	6.32	2.12	11.8	62.8
[10]	-0.82	-0.63	1.16	-2	11
[11]	-1.58	-1.28	-6.24	-18	-4.02
[12]	5.84	-6.29	4.9	-19.1	-1.65
[13]	-8.45	5.23	3.94	0.79	15.8
[14]	-20.8	-8.02	3.37	-3.4	8.17

Conditions	drug sensitivity score
[15]	5.12
[16]	2.31
[17]	0
[18]	6.43
[19]	8.07
[20]	7.67
[21]	4.02
[22]	7.11
[23]	5.37
[24]	0
[25]	0
[26]	0
[27]	0.35
[28]	0

C[C@@H]1C[C@H]2O[C@@H]2/C=C\C=C\C(=O)Cc2c(Cl)c(O)cc(O)c2C(=O)O1 [Radicicol] (max concentration tested 10000 nM)
percent inhibition of viability [%]
Conditions	1 nM	10 nM	100 nM	1000 nM	10000 nM
[1]	-4.44	1.88	51	98.6	80.6
[2]	-0.88	14.3	79.4	100	101
[3]	-2.78	3.67	0.43	101	101
[4]	1.19	9.86	58.6	99.8	94.4
[5]	0.9	2.76	13.1	101	110
[6]	-1.96	-4.16	34.1	99.2	104
[7]	3.72	7.15	24.6	93.4	99.7
[8]	-1.4	4.63	30.1	85.8	81.6
[9]	8	13.2	49.9	96.8	78.6
[10]	-1.95	7.65	16.1	64.4	91.6
[11]	5.96	-3.33	44.2	80.8	94.1
[12]	9.89	-3.46	22.4	41.1	75.4
[13]	-13.3	-1.53	60.7	82	91.3
[14]	-8.94	-10.4	38	82.1	91.5

Conditions	drug sensitivity score
[15]	23.9
[16]	28.9
[17]	18.1
[18]	25.1
[19]	20.2
[20]	22.8
[21]	20
[22]	19.4
[23]	23.3
[24]	14.2
[25]	20.8
[26]	10.6
[27]	23.6
[28]	20.5

CNC(=O)c1cc(Oc2ccc(NC(=O)Nc3cc(C(C)(C)C)nn3-c3ccc4ncccc4c3)c(F)c2)ccn1 [Rebastinib] (max concentration tested 1000 nM)
percent inhibition of viability [%]
Conditions	0.1 nM	1 nM	10 nM	100 nM	1000 nM
[1]	-1.77	-3.86	-0.78	-3.03	-4.18
[2]	-4.96	1.69	-0.5	-4.52	-8.09
[3]	0.93	7.15	-1.23	1.86	-6.19
[4]	7.99	9.63	10.5	5.1	-6.78
[5]	-2.88	-0.08	0.01	-1.2	-8.03
[6]	-1.88	1.51	-1.48	0.06	-12.8
[7]	-1.58	-3.98	-0.95	1.01	2.92
[8]	-2.2	-3.91	-1.3	8.69	5.2
[9]	7.77	13.4	-14.2	1.04	-59.9
[10]	-4.61	-3.15	-0.26	1.61	-0.37
[11]	-3.76	-8.51	-9.53	-4.2	-12.7
[12]	-11.2	-7.34	-6.2	-15.4	1.95
[13]	-4.03	-4.97	-4.4	-1.73	-9.3
[14]	-9.69	-6.19	-1.5	-11	-8.81

Conditions	drug sensitivity score
[15]	0
[16]	0
[17]	0
[18]	0
[19]	0
[20]	0
[21]	0
[22]	0
[23]	0
[24]	0
[25]	0
[26]	0
[27]	0
[28]	0
